Counter-ions that a name gives are not always drawn.
Molecular target: Bile salt export pump (Homo sapiens, UniProt O95342)
Type: ADME

SMILES | IC50 [µM]
CC(=O)c1ccc2c(c1)N(CCCN(C)C)c1ccccc1S2 [ACEPROMAZINE] | 112
CC1(C)CC(O)CC(C)(C)N1[O] [TEMPOL] | > 1000
O=S(=O)(CCOCCc1ccccc1)NCCNCCc1ccc(O)c2nc(O)sc12 | 35.7
CCCNC(C)(C)COC(=O)c1ccccc1 [MEPRYLCAINE] | > 1000
CC(C)[C@H](O)C(=O)N[C@@H](C)C(=O)N[C@@H]1C(=O)N(C)CCc2ccccc21 | 472
COc1ccc2c(c1)CC[C@@H]1[C@@H]2CC[C@@]2(C)[C@H]1CC[C@@]2(O)C#N | < 10
O=C(O[C@H]1C[N+]2(CCCOc3ccccc3)CCC1CC2)C(O)(c1cccs1)c1cccs1 | 127
O=C(Oc1ccccc1C(=O)O)c1ccccc1O [SALSALATE] | > 1000
NS(=O)(=O)c1cc2c(cc1Cl)N=C(CSCc1ccccc1)NS2(=O)=O [BENZTHIAZIDE] | 57.4
CC1(C)COC(=O)C1O (stereo not given) | > 1000
O=C1C(O)=C(O)C(=O)C(O)=C1O [TETROQUINONE] | > 1000
CC1Cc2ccccc2N1NC(=O)c1ccc(Cl)c(S(N)(=O)=O)c1 (stereo not given) [INDAPAMIDE] | 145
CC12CC3CC(C)(C1)CC(N)(C3)C2 [MEMANTINE] | > 1000
O=C(O)c1cc2cc(O)ccc2n1Cc1ccc(Cl)c(C(F)(F)F)c1 | 18.5
CC1=C(/C=C/C(C)=C/C=C/C(C)=C/C(=O)O)C(C)(C)CCC1 [TRETINOIN] | < 10
NC(=O)c1ccc([N+](=O)[O-])cc1Cl [AKLOMIDE] | > 1000
OCc1ccccc1O[C@@H]1O[C@H](CO)[C@@H](O)[C@H](O)[C@H]1O [SALICIN] | > 1000
C[C@]12C=CC(=O)C=C1CC[C@H]1[C@@H]3C[C@@H](O)[C@](O)(C(=O)CO)[C@@]3(C)C[C@H](O)[C@@]12F [TRIAMCINOLONE] | 236
CCCCCCCC/C=C/CCCCCCCC(=O)OCC(COP(=O)(O)OCC[N+](C)(C)C)OC(=O)CCCCCCC/C=C/CCCCCCCC (stereo not given) | < 16
CCCc1c2oc(C(=O)O)cc(=O)c2cc2c(=O)cc(C(=O)O)oc12 [PROBICROMIL] | > 1000
N=c1nc(N2CCCCC2)cc(N)n1O | > 1000
CC(=O)NS(=O)(=O)c1ccc(NC(=O)c2ccccc2C(=O)O)cc1 | > 1000
C[C@]12CCC(=O)C=C1CC[C@@H]1[C@@H]2[C@@H](O)C[C@@]2(C)[C@H]1CC[C@]2(O)C(=O)CO [HYDROCORTISONE] | 252
CCCCc1nc(Cl)c(CO)n1Cc1ccc(-c2ccccc2-c2nn[nH]n2)cc1 [LOSARTAN] | < 10

SMILES | IC50 [µM]
CN(C)/N=N/c1[nH]cnc1C(N)=O [DACARBAZINE] | > 1000
CC(C(=O)O)c1ccc2oc(-c3ccc(Cl)cc3)nc2c1 (stereo not given) [BENOXAPROFEN] | 104
CC(Cc1ccc2c(c1)OCO2)NCC(O)c1ccc(O)c(O)c1 (stereo not given) [PROTOKYLOL HYDROCHLORIDE] | > 982
C/C(=N\OC(C)(C)C(=O)O)c1csc(N)n1 | > 1000
OCCOCCN1CCN(C(c2ccccc2)c2ccc(Cl)cc2)CC1 (stereo not given) [HYDROXYZINE] | 72.9
CC(C(=O)O)c1ccc(-c2ccccc2)c(F)c1 (stereo not given) [FLURBIPROFEN] | 725
Cc1ccc2c(c1)c(-c1ccnc3c(C(F)(F)F)cccc13)c(C)n2CC(=O)O | < 10
CCCCCCCCCCCCCCCCCCCCCCO [DOCOSANOL] | > 1000
Oc1cccc2cccnc12 [OXYQUINOLINE] | > 1000
COc1ccc2c(c1OC)C(=O)OC2C1c2c(cc3c(c2OC)OCO3)CCN1C (stereo not given) | 23.9
Cc1cc(C(C)(C)C)cc(C)c1CC1=NCCN1 [XYLOMETAZOLINE] | > 796
CC(=O)NS(=O)(=O)c1ccc(N)cc1 [SULFACETAMIDE] | > 1000
Clc1ccc(COC(Cn2ccnc2)c2ccc(Cl)cc2Cl)cc1 (stereo not given) [ECONAZOLE] | < 10
CC(CCc1ccccc1)NC(C)C(O)c1ccc(O)cc1 (stereo not given) [NYLIDRIN] | 280
Cc1c(C(=O)NN2CCCCC2)nn(-c2ccc(Cl)cc2Cl)c1-c1ccc(Cl)cc1 [RIMONABANT] | < 10
CNC[C@H](O)Cc1ccc(Cl)c(C(=O)NCC23CC4CC(CC(C4)C2)C3)c1 | 133
COc1nc(C)cnc1NS(=O)(=O)c1cccnc1-c1ccc(CC(C)C)cc1 | 19.5
CC1(C)O[C@@H]2C[C@H]3[C@@H]4CCC5=CC(=O)CC[C@]5(C)[C@@]4(F)[C@@H](O)C[C@]3(C)[C@]2(C(=O)CCl)O1 [HALCINONIDE] | < 10
C[C@@H]1C[C@H]2[C@@H]3CCC4=CC(=O)C=C[C@]4(C)[C@@]3(F)[C@@H](O)C[C@]2(C)[C@H]1C(=O)CO [DESOXIMETASONE] | 16.4
COc1cc(CNC(=O)CCCC/C=C/C(C)C)ccc1O [CAPSAICIN] | < 10
CCc1cccc(C)c1CNC1=C2NC(C)=C(C)N2CC(C(N)=O)=C1 | < 10
Cc1cccc(Nc2ccncc2S(=O)(=O)NC(=O)NC(C)C)c1 [TORSEMIDE] | 131
CCCN(CCC)S(=O)(=O)c1ccc(C(=O)O)cc1 [PROBENECID] | 587
CCCc1c2nc(C(=O)O)cc(Cl)c2cc2c(=O)cc(C(=O)O)oc12 | > 892

SMILES | IC50 [µM]
CCN(CC)CCNc1ccc(CO)c2sc3ccccc3c(=O)c12 [HYCANTHONE] | 29.8
O=C(O)c1ccccc1S [THIOSALICYLIC ACID] | > 1000
O=CN(O)C(CCCc1ncccn1)CS(=O)(=O)N1CCN(c2ccc(F)cc2)CC1 (stereo not given) | < 16.4
NC(=O)NC(=O)Cc1ccccc1 [PHENACEMIDE] | > 1000
O=CN(O)C(CCc1cccnc1)CS(=O)(=O)N1CCN(c2ccc(Cl)cn2)CC1 (stereo not given) | < 10
C[C@H](Oc1ccc(C(F)(F)F)cc1-c1ccc(S(C)(=O)=O)c(C(F)(F)F)c1)C(=O)O | 35.8
O=C(O)c1cc(-c2ccccc2)nc2ccccc12 [CINCHOPHEN] | > 814
Nc1ccc([As](=O)(O)O)cc1 | > 1000
Clc1ccc(Nc2nnc(Cc3ccncc3)c3ccccc23)cc1 [VATALANIB] | < 10
Cc1cc2c(cc(C(=O)O)n2Cc2ccc(Cl)c(Cl)c2)o1 | 15.9
Cc1ccc(NC(=O)c2cccc(-c3ccco3)c2)cc1-n1cnc2ccc(N3CCN(C)CC3)cc2c1=O | < 10
C[N+]1(C)[C@@H]2C[C@@H](OC(=O)C(O)(c3cccs3)c3cccs3)C[C@H]1[C@@H]1O[C@@H]12 [TIOTROPIUM] | > 1000
CN1C[C@H](CNC(=O)OCc2ccccc2)C[C@@H]2c3cccc4c3c(cn4C)C[C@H]21 [METERGOLINE] | < 10
NC(=O)c1cc([N+](=O)[O-])cc([N+](=O)[O-])c1 [NITROMIDE] | 185
CCS(=O)(=O)c1ccc(-c2cc(Cl)ccc2OCC(=O)O)c(F)c1 | 168
CN1C(=O)CC(c2ccccc2)C1=O (stereo not given) [PHENSUXIMIDE] | > 1000
C[C@]12CC[C@@H]3c4ccc(O)cc4CC[C@H]3[C@@H]1CCC2=O [ESTRONE] | > 1000
C[C@@H](O)[C@H]1C(=O)N2C(C(=O)O)=C(SCCN=CN)C[C@H]12 [IMIPENEM ANHYDROUS] | > 1000
COc1cc2c(cc1OC)C(=O)C(CC1CCN(Cc3ccccc3)CC1)C2 (stereo not given) [DONEPEZIL] | 146
C=CC1=C(C(=O)O)N2C(=O)[C@@H](NC(=O)/C(=N\OCC(=O)O)c3csc(N)n3)[C@H]2SC1 [CEFIXIME] | > 1000
CC(c1cc2ccccc2s1)N(O)C(N)=O (stereo not given) [ZILEUTON] | > 751
Cc1ccc2c(c1)c(-c1ccnc3c(Cl)cccc13)c(C)n2CC(=O)O | < 10
Cc1nc(C)c(C)nc1C [LIGUSTRAZINE] | > 1000
C[C@H]1C[C@@H]2[C@H]([C@@H](O)C[C@@]3(C)[C@H]2CC[C@]3(O)C(=O)CO)[C@@]2(C)C=CC(=O)C=C12 [METHYLPREDNISOLONE] | 33

SMILES | IC50 [µM]
CCN1CCC[C@H]1CNC(=O)c1c(OC)ccc(Br)c1OC [REMOXIPRIDE] | < 10
Cc1ccccc1OCC(O)CO (stereo not given) [MEPHENESIN] | > 1000
OC[C@@H](O)[C@@H](O[C@@H]1O[C@H](CO)[C@H](O)[C@H](O)[C@H]1O)[C@H](O)[C@@H](O)CO [LACTITOL] | > 1000
CCOC(=O)c1ccc(N)cc1 [BENZOCAINE] | > 1000
C[C@@H]1O[C@@H](O[C@H]2C[C@@H](O)[C@]3(CO)[C@H]4[C@H](O)C[C@]5(C)[C@@H](C6=CC(=O)OC6)CC[C@]5(O)[C@@H]4CC[C@]3(O)C2)[C@H](O)[C@H](O)[C@H]1O [OUABAIN] | > 1000
CCN(CC)CCOC(=O)c1ccc(N)cc1Cl [CHLOROPROCAINE] | > 1000
C[C@H](N)[C@H](O)c1cccc(O)c1 [METARAMINOL] | > 1000
CCCc1c2c(c(O)c3c(=O)cc(C(=O)O)oc13)CCCC2 [PROXICROMIL] | 30 to 30.5
CC(C)(C)NCC(O)COc1cccc2c1CC(O)C(O)C2 (stereo not given) [NADOLOL] | > 1000
COC(=O)C1=C(C)NC(C)=C(C(=O)OC(C)C)[C@@H]1c1cccc2nonc12 [(R)-ISRADIPINE] | < 10
CC(C)(C)NC[C@H](O)COc1nsnc1N1CCOCC1 [TIMOLOL] | > 1000
Cc1cc(=O)n(-c2ccccc2)n1C [ANTIPYRINE] | > 1000
CNCCCN1c2ccccc2CCc2ccccc21 [DESIPRAMINE] | 150
C[C@@](Cc1ccc(O)c(O)c1)(NN)C(=O)O [CARBIDOPA ANHYDROUS] | > 1000
CCCCNc1ccc(C(=O)OCCN(C)C)cc1 [TETRACAINE] | 513
CCOC(=O)C1=C(COCCN)NC(C)=C(C(=O)OC)C1c1ccccc1Cl (stereo not given) [AMLODIPINE] | 16
C1CCC(C(CC2CCCCN2)C2CCCCC2)CC1 (stereo not given) [PERHEXILINE] | 14.4
Cc1onc(-c2c(Cl)cccc2Cl)c1C(=O)N[C@@H]1C(=O)N2[C@@H]1SC(C)(C)[C@@H]2C(=O)O [DICLOXACILLIN] | < 10
CC1CC(OC(=O)C(O)c2ccccc2)CC(C)(C)C1 (stereo not given) [CYCLANDELATE] | 15
CN1CCc2cccc3c2[C@H]1Cc1ccc(O)c(O)c1-3 (stereo in doubt; form 2) [APOMORPHINE] | 391
Cc1ccc(C(=O)Nc2ccc(S(=O)(=O)O)c3cc(S(=O)(=O)O)cc(S(=O)(=O)O)c23)cc1NC(=O)c1cccc(NC(=O)Nc2cccc(C(=O)Nc3cc(C(=O)Nc4ccc(S(=O)(=O)O)c5cc(S(=O)(=O)O)cc(S(=O)(=O)O)c45)ccc3C)c2)c1 [SURAMIN] | 107
Cc1ccc(NC(=O)c2ccc(CN3CCN(C)CC3)cc2)cc1Nc1nccc(-c2cccnc2)n1 [IMATINIB] | < 10
N#Cc1ccc(C(c2ccc(C#N)cc2)n2cncn2)cc1 [LETROZOLE] | 225

From ChEMBL document CHEMBL4017441, “Mitigating the inhibition of human bile salt export pump by drugs: opportunities provided by physicochemical property modulation, in silico modeling, and structural modification” (Drug Metab Dispos, 2012)
